Values joined by “and” are separate entries in the source; they are usually repeats but may differ in a detail not shown here. Identical values can stand only once.
Test system: EpiSkin (reconstructed human epidermis)
Test: In vitro dermal irritation EpiSkin test (MTT viability)
Protocol: The SkinEthic EpiSkin® test system has been validated by OECD test method (439) as an in vitro model to assess skin irritation potential. The test uses human keratinocytes derived from healthy donors, grown in vitro to reconstruct a functional model of the human epidermis.
EpiSkin® units were shipped on transport agar in sterile plates of 12 individual units. Upon delivery, the condition of the EpiSkin® was assessed by checking the pH and temperature indicators. EpiSkin® units were transferred to 12 well plates containing EpiSkin® maintenance medium (2 mL). […] The negative control was Dulbecco's phosphate buffered saline (PBS) and the positive control was an aqueous solution of sodium dodecyl sulphate (SDS, 5%, w/v).
The formulations were applied to the skin “without dilution”. An aliquot (10 μL) of the undiluted formulations and control substances were applied to three replicate EpiSkin® tissues using a positive displacement pipette. The formulations and controls were gently spread over the entire surface of the exposed skin using the applicator tip.
The EpiSkin® was exposed to the formulations and control substances for 15 min±30 s. The EpiSkin® surface was then rinsed with PBS (ca 25 mL) and returned to a well containing fresh Maintenance Medium (2 mL). […]
After the recovery period, EpiSkin® units were tapped dry and transferred to wells containing a solution of MTT in EpiSkin Assay Medium (2 mL, 0.3 mg/mL). […] The cell viability of each tissue was calculated from optical density absorption readings with reference to the negative controls, which were assigned the nominal value of 100% viability.
Standard statistical techniques were used to calculate ODblank mean: the average OD of the blank (acidified isopropanol containing) wells. The corrected OD for each sample or control was calculated by subtracting the value of ODblank mean from each reading: ODcorrected=ODraw−ODblank mean
The % Viability for each sample and positive control was calculated as follows: % Viability=(ODcorrected/mean ODnegative controls)×100 […]

## CCCCCCCCCCCCOS(=O)(=O)[O-].[Na+] [Aqueous SDS Solution (5%, w/v), sodium dodecyl sulphate]
Mean of three tissues, irritant (GHS category 2) if viability is 50% or less
  Mean Relative Viability per Treatment (%): 23.36%
Per replicate tissue (Rep 1-3), 15 min exposure, 42 h recovery, sulphate
  Mean Relative Viability per Tissue (%): 19.00% and 36.63% and 14.46%
Single readings, two per replicate tissue (Rep 1-3), 10 μL undiluted, 15 min exposure, 42 h recovery, negative control = 100%, sulphate
  Relative Viability (%): 19.05% and 18.95% and 36.18% and 37.08% and 13.81% and 15.12%
